According to patent publication US20240270762A1, “PENICILLIN-BINDING PROTEIN INHIBITORS” (priority 2021, published 2024):
In brackets after ≈: the same amount, converted by molar mass.

Key:
[1] = system: E. coli ATCC 25922; experiment: microbe, parasite or virus in culture; format: cell-based; details: Escherichia coli, ATCC25922, read-out: MIC E. coli 25922
[2] = system: N. gonorrhoeae WHO Z; experiment: Liquid broth MIC in Fastidious broth; details: Neisseria gonorrhoeae, read-out: Minimum Inhibitory Concentration (MIC), N. gonorrhoeae WHO Z
Protocol: (§1) Additional antibacterial testing of the series was performed in 8 reference strains of N. gonorrhoeae (ATCC 49226, FA1090, MS 11, WHO G, WHO L, WHO M, WHO K, WHO X, WHO Z, WHO Q, CDC-0197). ATCC 49226, FA1090, MS11, WHO G, WHO L, and WHO M produce wild type or wild-type like PBP2. WHO K, WHO X, WHO Z, WHO Q, and CDC-0197 produce mosaic PBP2. Liquid broth-based assays were used for antibacterial testing of PBP inhibitors in Neisseria gonorrhoeae. Briefly, cryo-preserved bacterial cultures of clinical strains were streaked for isolation on Chocolate Agar (72 g/L (2×) GC Agar Base (BD #228950) and 2% (2×) Hemoglobin was autoclaved at 121° C. for 20 minutes to sterilize. Once cooled to ˜50° C. the 2×GC Agar Base and 2× Hemoglobin solutions are combined and 1% IsoVitaleX Enrichment (BD #211876) was added to the solution). Strains were incubated at 36° C. and 5% CO2 to allow growth of colonies, 24 hours before inoculum preparation. 2-fold serial dilutions of test compounds were conducted in a 96 well plate with a final volume of 75 μL per well at 2-fold the final desired concentration in Fastidious broth (Remel #R07664). For preparation of assay inoculum, a direct suspension was prepared by aseptically swabbing 10-15 colonies from agar plates into culture tubes containing 2 mL of fresh sterile saline. After the dilution plates were set up, direct suspensions were then diluted in a cuvette containing sterile saline and the optical density was measured at 600 nm. Inocula were diluted such that 75 μL of this culture in Fastidious broth results in a starting bacterial concentration of 5×10^5 CFU/mL when added to the dilution plates. The plates were incubated for ˜24 hours at 36° C. and 5% CO2.

[3] = system: K. pneumoniae UMM; experiment: microbe, parasite or virus in culture; format: cell-based; details: Klebsiella pneumoniae, read-out: MIC K. pneumoniae UMM
[4] = system: N. gonorrhoeae MS11; experiment: Liquid broth MIC in Fastidious broth; details: Neisseria gonorrhoeae, MS11, read-out: Minimum Inhibitory Concentration (MIC), N. gonorrhoeae MS11
Protocol: as §1

[5] = system: P. aeruginosa ATCC 27853; experiment: microbe, parasite or virus in culture; format: cell-based; details: Pseudomonas aeruginosa, ATCC27853, read-out: MIC P. aeruginosa ATCC 27853
[6] = target: T1, PBP3 from Pseudomonas aeruginosa (PAO1) (Pseudomonas aeruginosa, UniProt G3XD46); experiment: Bocillin-FL fluorescence polarization competition binding, P. aeruginosa PBP3; details: Binding affinity to P. aeruginosa PBP3; fluorescence polarization competition binding assay using Bocillin-FL; read-out: P. aeruginosa PBP3 Potency
T1 construct: made in house
T1 sequence (G3XD46 whole entry): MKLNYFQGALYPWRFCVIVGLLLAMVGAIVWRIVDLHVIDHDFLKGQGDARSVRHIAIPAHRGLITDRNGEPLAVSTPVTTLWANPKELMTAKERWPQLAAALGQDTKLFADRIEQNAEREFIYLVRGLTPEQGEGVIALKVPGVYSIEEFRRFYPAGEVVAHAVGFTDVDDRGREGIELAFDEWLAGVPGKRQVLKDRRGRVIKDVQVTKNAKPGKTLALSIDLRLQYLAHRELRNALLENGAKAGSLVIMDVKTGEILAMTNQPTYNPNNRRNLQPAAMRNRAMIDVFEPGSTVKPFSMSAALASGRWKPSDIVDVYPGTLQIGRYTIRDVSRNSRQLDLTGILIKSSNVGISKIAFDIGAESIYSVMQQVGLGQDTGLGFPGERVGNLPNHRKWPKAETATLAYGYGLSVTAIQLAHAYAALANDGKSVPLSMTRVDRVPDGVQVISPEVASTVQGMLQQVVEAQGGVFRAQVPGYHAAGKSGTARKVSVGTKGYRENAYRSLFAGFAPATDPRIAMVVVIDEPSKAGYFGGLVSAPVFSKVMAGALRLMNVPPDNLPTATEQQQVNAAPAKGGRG
Outline: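 Purified PBPs pre-incubated with inhibitor (E. coli PBP3 1.5 μM, 30 min; P. aeruginosa PBP3 0.75 μM, A. baumannii PBP1a 1 μM and PBP3 0.2 μM, 15 min), then Bocillin-FL 0.1 μM (0.05 μM for PBP1a) added; FP read up to 60 min. EC50 = concentration halving bound Bocillin-FL.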

[7] = system: N. gonorrhoeae WHO Q; experiment: Liquid broth MIC in Fastidious broth; details: Neisseria gonorrhoeae, read-out: Minimum Inhibitory Concentration (MIC), N. gonorrhoeae WHO Q

SMILES | MIC [1] [µg/mL] | MIC [2] [µg/mL] | MIC [3] [µg/mL] | MIC [4] [µg/mL] | MIC [5] [µg/mL] | IC50 [6] [µM] | MIC [7] [µg/mL]
CC(=O)NC(C(=O)N[C@H]1Cc2cccc(C(=O)O)c2OB1O)c1ccc(P(=O)(O)O)cc1 (stereo partly drawn) [Example 26, (3R)-3-(2-acetamido-2-(4-phosphonophenyl)acetamido)-2-hydroxy-3,4-dihydro-2H-benzo[e][1,2]oxaborinine-8-carboxylic acid] | > 128 | 16 to 32 (≈ 34.6 to 69.2 µM) | > 128 | 16 to 32 (≈ 34.6 to 69.2 µM) | > 128 | 50 to 250 | 16 to 32 (≈ 34.6 to 69.2 µM)
CCC(=O)NC(C(=O)N[C@H]1Cc2cccc(C(=O)O)c2OB1O)c1ccc(P(=O)(O)O)cc1 (stereo partly drawn) [Example 27, (3R)-2-hydroxy-3-(2-(4-phosphonophenyl)-2-propionamidoacetamido)-3,4-dihydro-2H-benzo[e][1,2]oxaborinine-8-carboxylic acid] | > 128 | 16 to 32 (≈ 33.6 to 67.2 µM) | > 128 | 16 to 32 (≈ 33.6 to 67.2 µM) | > 128 | 10 to 50 | 16 to 32 (≈ 33.6 to 67.2 µM)
CC(C)C(=O)NC(C(=O)N[C@H]1Cc2cccc(C(=O)O)c2OB1O)c1ccc(P(=O)(O)O)cc1 (stereo partly drawn) [Example 28, (3R)-2-hydroxy-3-(2-isobutyramido-2-(4-phosphonophenyl)acetamido)-3,4-dihydro-2H-benzo[e][1,2]oxaborinine-8-carboxylic acid] | > 128 | 16 to 32 (≈ 32.6 to 65.3 µM) | > 128 | 16 to 32 (≈ 32.6 to 65.3 µM) | > 128 | 10 to 50 | 16 to 32 (≈ 32.6 to 65.3 µM)
CC(C)(C)C(=O)NC(C(=O)N[C@H]1Cc2cccc(C(=O)O)c2OB1O)c1ccc(P(=O)(O)O)cc1 (stereo partly drawn) [Example 29, (3R)-2-hydroxy-3-(2-(4-phosphonophenyl)-2-pivalamidoacetamido)-3,4-dihydro-2H-benzo[e][1,2]oxaborinine-8-carboxylic acid] | > 128 | 16 to 32 (≈ 31.7 to 63.5 µM) | 32 to 64 (≈ 63.5 to 127 µM) | 16 to 32 (≈ 31.7 to 63.5 µM) | 32 to 64 (≈ 63.5 to 127 µM) | 10 to 50 | 16 to 32 (≈ 31.7 to 63.5 µM)
O=C(O)c1cccc2c1OB(O)[C@@H](NC(=O)C(NC(=O)C1CC1)c1ccc(P(=O)(O)O)cc1)C2 (stereo partly drawn) [Example 30, (3R)-3-(2-(cyclopropanecarboxamido)-2-(4-phosphonophenyl)acetamido)-2-hydroxy-3,4-dihydro-2H-benzo[e][1,2]oxaborinine-8-carboxylic acid] | > 128 | 16 to 32 (≈ 32.8 to 65.5 µM) | > 128 | 16 to 32 (≈ 32.8 to 65.5 µM) | > 128 | 50 to 250 | 16 to 32 (≈ 32.8 to 65.5 µM)
O=C(O)c1cccc2c1OB(O)[C@@H](NC(=O)C(NC(=O)C1CCCCC1)c1ccc(P(=O)(O)O)cc1)C2 (stereo partly drawn) [Example 31, (3R)-3-(2-(cyclohexanecarboxamido)-2-(4-phosphonophenyl)acetamido)-2-hydroxy-3,4-dihydro-2H-benzo[e][1,2]oxaborinine-8-carboxylic acid] | > 128 | 16 to 32 (≈ 30.2 to 60.3 µM) | > 128 | 16 to 32 (≈ 30.2 to 60.3 µM) | > 128 | 10 to 50 | 16 to 32 (≈ 30.2 to 60.3 µM)
O=C(NC(C(=O)N[C@H]1Cc2cccc(C(=O)O)c2OB1O)c1ccc(P(=O)(O)O)cc1)c1ccccn1 (stereo partly drawn) [Example 32, (3R)-2-hydroxy-3-(2-(4-phosphonophenyl)-2-(picolinamido)acetamido)-3,4-dihydro-2H-benzo[e][1,2]oxaborinine-8-carboxylic acid] | > 128 | 1 to 2 (≈ 1.9 to 3.81 µM) | > 128 | 1 to 2 (≈ 1.9 to 3.81 µM) | > 128 | < 10 | 1 to 2 (≈ 1.9 to 3.81 µM)
CC(=O)N1CCC[C@@H]1C(=O)N[C@H](C(=O)N[C@H]1Cc2cccc(C(=O)O)c2OB1O)c1ccc(P(=O)(O)O)cc1 [Example 33, (3R)-3-(2-((R)-1-acetylpyrrolidine-2-carboxamido)-2-(4-phosphonophenyl)acetamido)-2-hydroxy-3,4-dihydro-2H-benzo[e][1,2]oxaborinine-8-carboxylic acid] | > 128 | 16 to 32 (≈ 28.6 to 57.2 µM) | > 128 | 16 to 32 (≈ 28.6 to 57.2 µM) | > 128 | 10 to 50 | 16 to 32 (≈ 28.6 to 57.2 µM)
CS(=O)(=O)N1CCC[C@@H]1C(=O)N[C@H](C(=O)N[C@H]1Cc2cccc(C(=O)O)c2OB1O)c1ccc(P(=O)(O)O)cc1 [Example 34, (R)-2-hydroxy-3-((S)-2-((R)-1-(methylsulfonyl)pyrrolidine-2-carboxamido)-2-(4-phosphonophenyl)acetamido)-3,4-dihydro-2H-benzo[e][1,2]oxaborinine-8-carboxylic acid] | > 128 | 16 to 32 (≈ 26.9 to 53.8 µM) | > 128 | 16 to 32 (≈ 26.9 to 53.8 µM) | > 128 | 50 to 250 | 16 to 32 (≈ 26.9 to 53.8 µM)
CS(=O)(=O)N1CCC[C@@H]1C(=O)N[C@@H](C(=O)N[C@H]1Cc2cccc(C(=O)O)c2OB1O)c1ccc(P(=O)(O)O)cc1 [Example 35, (R)-2-hydroxy-3-((R)-2-((R)-1-(methylsulfonyl)pyrrolidine-2-carboxamido)-2-(4-phosphonophenyl)acetamido)-3,4-dihydro-2H-benzo[e][1,2]oxaborinine-8-carboxylic acid] | > 128 | 4 to 8 (≈ 6.72 to 13.4 µM) | > 128 | 1 to 2 (≈ 1.68 to 3.36 µM) | > 128 | < 10 | 4 to 8 (≈ 6.72 to 13.4 µM)
O=C(O)c1cccc2c1OB(O)[C@@H](NC(=O)[C@@H](NC(=O)N1CCCCC1=O)c1ccc(P(=O)(O)O)cc1)C2 [Example 36, (R)-2-hydroxy-3-((S)-2-(2-oxopiperidine-1-carboxamido)-2-(4-phosphonophenyl)acetamido)-3,4-dihydro-2H-benzo[39e][1,2]oxaborinine-8-carboxylic acid] | > 128 | 16 to 32 (≈ 29.3 to 58.7 µM) | > 128 | 16 to 32 (≈ 29.3 to 58.7 µM) | > 128 | 50 to 250 | 16 to 32 (≈ 29.3 to 58.7 µM)
O=C(O)c1cccc2c1OB(O)[C@@H](NC(=O)[C@H](NC(=O)N1CCCCC1=O)c1ccc(P(=O)(O)O)cc1)C2 [Example 37, (R)-2-hydroxy-3-((R)-2-(2-oxopiperidine-1-carboxamido)-2-(4-phosphonophenyl)acetamido)-3,4-dihydro-2H-benzo[e][1,2]oxaborinine-8-carboxylic acid] | > 128 | 1 to 2 (≈ 1.83 to 3.67 µM) | > 128 | 1 to 2 (≈ 1.83 to 3.67 µM) | > 128 | < 10 | 1 to 2 (≈ 1.83 to 3.67 µM)
CN1CCCN(C(=O)NC(C(=O)N[C@H]2Cc3cccc(C(=O)O)c3OB2O)c2ccc(P(=O)(O)O)cc2)C1=O (stereo partly drawn) [Example 38, (3R)-2-hydroxy-3-(2-(3-methyl-2-oxohexahydropyrimidine-1-carboxamido)-2-(4-phosphonophenyl)acetamido)-3,4-dihydro-2H-benzo[e][1,2]oxaborinine-8-carboxylic acid] | > 128 | 1 to 2 (≈ 1.78 to 3.57 µM) | > 128 | 1 to 2 (≈ 1.78 to 3.57 µM) | > 128 | < 10 | 4 to 8 (≈ 7.14 to 14.3 µM)
O=C(O)c1cccc2c1OB(O)[C@@H](NC(=O)[C@@H](NC(=O)N1CCNC1=O)c1ccc(P(=O)(O)O)cc1)C2 [Example 39, (R)-2-hydroxy-3-((S)-2-(2-oxoimidazolidine-1-carboxamido)-2-(4-phosphonophenyl)acetamido)-3,4-dihydro-2H-benzo[e][1,2]oxaborinine-8-carboxylic acid] | > 128 | 1 to 2 (≈ 1.88 to 3.76 µM) | > 128 | 1 to 2 (≈ 1.88 to 3.76 µM) | > 128 | 10 to 50 | 4 to 8 (≈ 7.52 to 15 µM)
